Data reported in US8129366B2, “VLA-4 inhibitory drug” (Daiichi Sankyo Company, Limited, priority 2005, dated 2012).

Biological target: T1, hα4 and β1 integrins (Homo sapiens, UniProt P05556+P13612)
T1 construct: expressed in transfected cells; host or cells: CHO cells
Assay: In vitro inhibition of binding between CHO cells expressing hα4 and β1 integrins and Eu3+-hVCAM-1 D1D7-IgG
Conditions: for Ki: CHO cells expressing hα4 and β1 integrins, Eu3+-hVCAM-1 D1D7-IgG ligand, without HSA; for IC50: in the presence of 3% human serum albumin (HSA final concentration 3%)
How it was run: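 Transfected CHO cells, cultured 2 days, were incubated with compound and Eu³⁺-hVCAM-1 D1D7-IgG (diluted to 2 nM) for 1 h at room temperature. Buffer was 25 mM HEPES pH 7.5 with 1 mM Ca²⁺, 1 mM Mg²⁺, 4 mM Mn²⁺ and 0.1% BSA, ±3% HSA final. Cells were washed at 4 °C and read by DELFIA time-resolved fluorescence; Ki was derived from IC50 using the Scatchard Kd.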

T1 sequence (P13612 34-1032): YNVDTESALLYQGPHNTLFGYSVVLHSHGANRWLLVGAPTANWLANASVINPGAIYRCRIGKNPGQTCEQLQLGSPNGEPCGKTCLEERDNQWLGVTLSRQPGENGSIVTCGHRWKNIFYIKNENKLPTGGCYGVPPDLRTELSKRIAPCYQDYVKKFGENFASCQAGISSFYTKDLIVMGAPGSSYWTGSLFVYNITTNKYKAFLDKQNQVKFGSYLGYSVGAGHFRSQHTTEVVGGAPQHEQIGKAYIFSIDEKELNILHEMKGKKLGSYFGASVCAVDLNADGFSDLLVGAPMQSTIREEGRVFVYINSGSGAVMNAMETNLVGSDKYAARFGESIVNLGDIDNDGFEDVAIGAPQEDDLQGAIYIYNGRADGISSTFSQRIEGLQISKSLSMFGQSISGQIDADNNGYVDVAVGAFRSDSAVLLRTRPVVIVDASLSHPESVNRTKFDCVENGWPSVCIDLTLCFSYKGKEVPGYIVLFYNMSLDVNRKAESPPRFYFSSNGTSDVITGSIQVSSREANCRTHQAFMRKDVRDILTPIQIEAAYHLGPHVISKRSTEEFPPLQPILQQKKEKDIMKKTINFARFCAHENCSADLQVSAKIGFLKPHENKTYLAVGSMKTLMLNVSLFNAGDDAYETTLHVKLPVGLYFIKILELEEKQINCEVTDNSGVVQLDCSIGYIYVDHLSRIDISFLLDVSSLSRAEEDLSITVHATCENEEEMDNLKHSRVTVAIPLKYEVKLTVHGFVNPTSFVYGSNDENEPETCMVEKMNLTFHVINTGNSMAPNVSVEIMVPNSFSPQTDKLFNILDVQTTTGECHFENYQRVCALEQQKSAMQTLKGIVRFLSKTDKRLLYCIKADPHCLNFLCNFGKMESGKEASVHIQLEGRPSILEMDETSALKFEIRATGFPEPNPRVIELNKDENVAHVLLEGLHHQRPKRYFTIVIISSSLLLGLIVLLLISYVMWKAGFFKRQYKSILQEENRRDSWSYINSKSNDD
T1 sequence (P05556 21-798): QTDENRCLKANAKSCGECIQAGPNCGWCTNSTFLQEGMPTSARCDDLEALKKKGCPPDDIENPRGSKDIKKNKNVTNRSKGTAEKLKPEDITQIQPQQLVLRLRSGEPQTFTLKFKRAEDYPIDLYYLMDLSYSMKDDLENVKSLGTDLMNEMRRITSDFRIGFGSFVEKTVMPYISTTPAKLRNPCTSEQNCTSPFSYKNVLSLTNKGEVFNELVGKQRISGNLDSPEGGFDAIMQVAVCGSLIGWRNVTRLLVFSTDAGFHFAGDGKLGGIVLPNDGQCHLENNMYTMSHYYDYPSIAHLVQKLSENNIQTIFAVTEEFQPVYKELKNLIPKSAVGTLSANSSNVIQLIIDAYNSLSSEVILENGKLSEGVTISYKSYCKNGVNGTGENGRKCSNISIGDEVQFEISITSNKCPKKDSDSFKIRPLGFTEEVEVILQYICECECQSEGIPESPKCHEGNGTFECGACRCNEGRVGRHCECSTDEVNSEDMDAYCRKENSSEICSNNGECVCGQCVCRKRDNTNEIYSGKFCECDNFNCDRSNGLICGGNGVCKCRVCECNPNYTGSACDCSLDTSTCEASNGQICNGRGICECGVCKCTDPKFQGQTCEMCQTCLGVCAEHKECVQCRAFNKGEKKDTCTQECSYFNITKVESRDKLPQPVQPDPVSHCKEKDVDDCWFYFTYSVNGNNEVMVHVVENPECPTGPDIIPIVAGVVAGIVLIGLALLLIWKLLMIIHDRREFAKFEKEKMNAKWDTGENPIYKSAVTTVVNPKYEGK

| Structure (SMILES) | Ki [nM] | IC50 [nM] |
| --- | --- | --- |
| COc1cc(CC(=O)N2C[C@@H](N3CCN(CC(F)(F)F)CC3)C[C@H]2CO[C@H]2CC[C@H](C(=O)O)CC2)ccc1NC(=O)c1csc2ccccc12 [Example 133, Trans-4-[1-[[4-[(benzo[b]thiophen-3-ylcarbonyl)amino]-3-methoxyphenyl]acetyl]-(4S)-[4-(2,2,2-trifluoroethyl)piperazin-1-yl]-(2S)-pyrrolidinylmethoxy]cyclohexanecarboxylic acid] | 1.3 | 3.3 |
| O=C(Nc1ccc(CC(=O)N2C[C@@H](N3CCN(CC(F)(F)F)CC3)C[C@H]2CO[C@H]2CC[C@H](C(=O)O)CC2)cc1Cl)c1csc2ccccc12 [Example 134, Trans-4-[1-[[4-[(benzo[b]thiophen-3-ylcarbonyl)amino]-3-chlorophenyl]acetyl]-(4S)-[4-(2,2,2-trifluoroethyl)piperazin-1-yl]-(2S)-pyrrolidinylmethoxy]cyclohexanecarboxylic acid] | 1.2 | 6.8 |
| COc1cc(CC(=O)N2C[C@@H](N3CCN(CC(F)(F)F)CC3)C[C@H]2CO[C@H]2CC[C@H](C(=O)O)CC2)ccc1NC(=O)c1cn(C)c2ccccc12 [Example 135, Trans-4-[1-[[3-methoxy-4-[(1-methyl-1H-indol-3-ylcarbonyl)amino]phenyl]acetyl]-(4S)-[4-(2,2,2-trifluoroethyl)piperazin-1-yl]-(2S)-pyrrolidinylmethoxy]cyclohexanecarboxylic acid] | 1.7 | 4.4 |
| O=C(Nc1cc(Cl)c(CC(=O)N2C[C@@H](N3CCN(C4CC4)CC3)C[C@H]2CO[C@H]2CC[C@H](C(=O)O)CC2)cc1Cl)c1csc2ccccc12 [Example 138, Trans-4-[1-[[4-[(benzo[b]thiophen-3-ylcarbonyl)amino]-2,5-dichlorophenyl]acetyl]-(4S)-(4-cyclopropylpiperazin-1-yl)-(2S)-pyrrolidinylmethoxy]cyclohexanecarboxylic acid] | 0.91 | 7.7 |
| O=C(Nc1cc(Cl)c(CC(=O)N2C[C@@H](N3CCN(C4CC4)CC3)C[C@H]2CO[C@H]2CC[C@H](C(=O)O)CC2)cc1Cl)c1coc2ccccc12 [Example 140] | 1.8 | 7.6 |
| Cn1cc(C(=O)Nc2cc(F)c(CC(=O)N3C[C@@H](N4CCN(C5CCCC5)CC4)C[C@H]3CO[C@H]3CC[C@H](C(=O)O)CC3)cc2Cl)c2ccccc21 [Example 142, Trans-4-[1-[[5-chloro-2-fluoro-4-[(1-methyl-1H-indol-3-ylcarbonyl)amino]phenyl]acetyl]-(4S)-[4-cyclopentylpiperazin-1-yl]-(2S)-pyrrolidinylmethoxy]cyclohexanecarboxylic acid] | 4.7 | 11 |
| O=C(Nc1cc(Cl)c(CC(=O)N2C[C@@H](N3CCN(C4CCCCC4)CC3)C[C@H]2CO[C@H]2CC[C@H](C(=O)O)CC2)cc1Cl)c1coc2ccccc12 [Example 143, Trans-4-[1-[[4-[(benzo[b]furan-3-ylcarbonyl)amino]-2,5-dichlorophenyl]acetyl]-(4S)-[4-cyclohexylpiperazin-1-yl]-(2S)-pyrrolidinylmethoxy]cyclohexanecarboxylic acid] | 3.5 | 14 |
| Cn1cc(C(=O)Nc2cc(F)c(CC(=O)N3C[C@@H](N4CCN(c5ccncc5)CC4)C[C@H]3CO[C@H]3CC[C@H](C(=O)O)CC3)cc2Cl)c2ccccc21 [Example 145, Trans-4-[1-[[5-chloro-2-fluoro-4-[(1-methyl-1H-indol-3-ylcarbonyl)amino]phenyl]acetyl]-(4S)-[4-(4-pyridyl)piperazin-1-yl]-(2S)-pyrrolidinylmethoxy]cyclohexanecarboxylic acid] | 3.9 | 11 |
| C[C@@H]1CN([C@H]2C[C@@H](CO[C@H]3CC[C@H](C(=O)O)CC3)N(C(=O)Cc3cc(Cl)c(NC(=O)c4coc5ccccc45)cc3F)C2)C[C@H](C)N1C [Example 146, Trans-4-[1-[[4-[(benzo[b]furan-3-ylcarbonyl)amino]-5-chloro-2-fluorophenyl]acetyl]-(4S)-(cis-1,2,6-trimethylpiperazin-4-yl)-(2S)-pyrrolidinylmethoxy]cyclohexanecarboxylic acid] | 2.6 | 7.6 |
| CC(=O)N1CCN([C@H]2C[C@@H](CO[C@H]3CC[C@H](C(=O)O)CC3)N(C(=O)Cc3cc(Cl)c(NC(=O)c4csc5ccccc45)cc3F)C2)CC1 [Example 148, Trans-4-[1-[[4-[(benzo[b]thiophen-3-ylcarbonyl)amino]-5-chloro-2-fluorophenyl]acetyl]-(4S)-(4-acetylpiperazin-1-yl)-(2S)-pyrrolidinylmethoxy]cyclohexanecarboxylic acid] | 0.53 | 2.8 |
| CS(=O)(=O)N1CCN([C@H]2C[C@@H](CO[C@H]3CC[C@H](C(=O)O)CC3)N(C(=O)Cc3cc(Cl)c(NC(=O)c4coc5ccccc45)cc3F)C2)CC1 [Example 150, Trans-4-[1-[[4-[(benzo[b]furan-3-ylcarbonyl)amino]-5-chloro-2-fluorophenyl]acetyl]-(4S)-(4-methanesulfonylpiperazin-1-yl)-(2S)-pyrrolidinylmethoxy]cyclohexanecarboxylic acid] | 1.6 | 6.8 |
| CCN1CCN([C@H]2C[C@@H](CO[C@H]3CC[C@H](C(=O)O)CC3)N(C(=O)Cc3cc(Cl)c(NC(=O)c4csc5ccccc45)cc3F)C2)CC1=O [Example 154, Trans-4-[1-[[4-[(benzo[b]thiophen-3-ylcarbonyl)amino]-5-chloro-2-fluorophenyl]acetyl]-(4S)-(4-ethyl-3-oxopiperazin-1-yl)-(2S)-pyrrolidinylmethoxy]cyclohexanecarboxylic acid] | 0.92 | 9.1 |

Now from value to compound:

| Ki [nM] | IC50 [nM] | Structure (SMILES) |
| --- | --- | --- |
| 2.9 | 8.7 | COCCN1CCN([C@H]2C[C@@H](CO[C@H]3CC[C@H](C(=O)O)CC3)N(C(=O)Cc3cc(Cl)c(NC(=O)c4cn(C)c5ccccc45)cc3Cl)C2)CC1 [Example 137, Trans-4-[1-[[2,5-dichloro-4-[(1-methyl-1H-indol-3-ylcarbonyl)amino]phenyl]acetyl]-(4S)-(4-(2-methoxyethyl)piperazin-1-yl)-(2S)-pyrrolidinylmethoxy]cyclohexanecarboxylic acid] |
| 6.3 | 23 | Cn1cc(C(=O)Nc2cc(F)c(CC(=O)N3C[C@@H](N4CCN(C5(C)CC5)CC4)C[C@H]3CO[C@H]3CC[C@H](C(=O)O)CC3)cc2Cl)c2ccccc21 [Example 141, Trans-4-[1-[[5-chloro-2-fluoro-4-[(1-methyl-1H-indol-3-ylcarbonyl)amino]phenyl]acetyl]-(4S)-[4-(1-methylcyclopropan-1-yl)piperazin-1-yl]-(2S)-pyrrolidinylmethoxy]cyclohexa necarboxylic acid] |
| 1.7 | 24 | Cn1cc(C(=O)Nc2cc(Cl)c(CC(=O)N3C[C@@H](N4CCN(C(=O)C(C)(C)C)CC4)C[C@H]3CO[C@H]3CC[C@H](C(=O)O)CC3)cc2Cl)c2ccccc21 [Example 149, Trans-4-[1-[[2,5-dichloro-4-[(1-methyl-1H-indol-3-ylcarbonyl)amino]phenyl]acetyl]-(4S)-(4-pivaloylpiperazin-1-yl)-(2S)-pyrrolidinylmethoxy]cyclohexanecarboxylic acid] |
| 4.2 | 26 | CN(C)S(=O)(=O)N1CCN([C@H]2C[C@@H](CO[C@H]3CC[C@H](C(=O)O)CC3)N(C(=O)Cc3cc(Cl)c(NC(=O)c4cn(C)c5ccccc45)cc3Cl)C2)CC1 [Example 151, Trans-4-[1-[[2,5-dichloro-4-[(1-methyl-1H-indol-3-ylcarbonyl)amino]phenyl]acetyl]-(4S)-(4-N,N-dimethylsulfamoylpiperazin-1-yl)-(2S)-pyrrolidinylmethoxy]cyclohexanecarboxylic acid] |
| 3.9 | 11 | CN1CCN([C@H]2C[C@@H](CO[C@H]3CC[C@H](C(=O)O)CC3)N(C(=O)Cc3cc(Cl)c(NC(=O)c4cn(C)c5ccccc45)cc3Cl)C2)CC1=O [Example 152, Trans-4-[1-[[2,5-dichloro-4-[(1-methyl-1H-indol-3-ylcarbonyl)amino]phenyl]acetyl]-(4S)-(4-methyl-3-oxopiperazin-1-yl)-(2S)-pyrrolidinylmethoxy]cyclohexanecarboxylic acid] |
| 1.5 | 9.3 | CN1CCN([C@H]2C[C@@H](CO[C@H]3CC[C@H](C(=O)O)CC3)N(C(=O)Cc3cc(Cl)c(NC(=O)c4csc5ccccc45)cc3Cl)C2)CC1=O [Example 153, Trans-4-[1-[[4-[(benzo[b]thiophen-3-ylcarbonyl)amino]-2,5-dichlorophenyl]acetyl]-(4S)-(4-methyl-3-oxopiperazin-1-yl)-(2S)-pyrrolidinylmethoxy]cyclohexanecarboxylic acid] |
| 2.1 | 10 | CN1CCN([C@H]2C[C@@H](CO[C@H]3CC[C@H](C(=O)O)CC3)N(C(=O)Cc3cc(Cl)c(NC(=O)c4coc5ccccc45)cc3Cl)C2)CC1=O [Example 155, Trans-4-[1-[[4-[(benzo[b]furan-3-ylcarbonyl)amino]-2,5-dichlorophenyl]acetyl]-(4S)-(4-methyl-3-oxopiperazin-1-yl)-(2S)-pyrrolidinylmethoxy]cyclohexanecarboxylic acid] |
| 4 | 16 | Cn1cc(C(=O)Nc2cc(F)c(CC(=O)N3C[C@@H](N4CCSCC4)C[C@H]3CO[C@H]3CC[C@H](C(=O)O)CC3)cc2Cl)c2ccccc21 [Example 158, Trans-4-[1-[[5-chloro-2-fluoro-4-[(1-methyl-1H-indol-3-ylcarbonyl)amino]phenyl]acetyl]-(4S)-(thiomorpholin-4-yl)-(2S)-pyrrolidinylmethoxy]cyclohexanecarboxylic acid] |
